Measured values taken from patent publication US5112834A, “Imidazole protectorant for the stomach and intestine” (BYK Gulden Lomberg Chemische Fabrik GmbH, priority 1987, dated 1992).
Where two headings read alike, the source gives them in different places.

System: modified Shay rat
Experiment: Antiulcerogenic and secretion-inhibiting action on the modified Shay rat (pylorus ligature plus oral acetylsalicylic acid)
Assay type: in vivo
Details: for Inhibition of acid secretion: Reduction in HCl secretion / Protective action on stomach: Reduction in lesion index: 4 hours; for ED50: Rattus norvegicus, 4 h, i.d.
Protocol: Ulcers are provoked in rats which have fasted for 24 hours (female, 180-200 g, 4 animals per cage on high grid) by pylorus ligature (under diethyl ether anaesthesia) and oral administration of 100 mg/10 ml/kg acetylsalicylic acid. The substances to be tested are administered intraduodenally (2,5 ml/kg) immediately following t[e pylorus ligature. The wound is closed by means of Michel clamps. 4 hours later, the animals are sacrificed under ether anaesthesia by atlas dislocation and the stomach is resected. The stomach is opened along the greater curvature and clamped on a cork sheet after first determining the amount of secreted gastric juice (volume) and subsequently its HCl content (titration with sodium hydroxide solution). Using a stereomicroscope at 10×magnification, the number and size (=diameter) of ulcers present are determined. The product of severity (according to the scale of points below) and number of ulcers serves as an individual lesion index. |Scale of points: | No ulcers 0 | Ulcer diameter | 0.1-1.4 mm | 1 | 1.5-2.4 mm | 2 | 2.5-3.4 mm | 3 | 3.5-4.4 mm | 4 | 4.5-5.4 mm | 5 | >5.5 mm 6 The reduction in the mean lesion index of each treated group compared with the control group (=100%) serves as a measure of the antiulcerogenic effect. The ED50 designates the dose which reduces the mean lesion index or the HCl secretion by 50% compared with the control.

[1] = 0.1 μmol/kg i.d. (intraduodenal)
[2] = 0.3 μmol/kg i.d. (intraduodenal)
[3] = 1.0 μmol/kg i.d. (intraduodenal)
[4] = 3.0 μmol/kg i.d. (intraduodenal)
[5] = 10.0 μmol/kg i.d. (intraduodenal)
[6] = 30.0 μmol/kg i.d. (intraduodenal)
[7] = dose (interpolated) which reduces the HCl secretion by 50% compared with control group, read-out: Inhibition of acid secretion: Approx. ED50
[8] = dose (interpolated) which reduces the lesion index by 50% compared with control group, read-out: Protective action on stomach: Approx. ED50
[9] = 0.6 μmol/kg i.d. (intraduodenal)
[10] = 1.5 μmol/kg i.d. (intraduodenal)
[11] = 2.0 μmol/kg i.d. (intraduodenal)
[12] = 6.0 μmol/kg i.d. (intraduodenal)

Row | Compound | Inhibition of acid secretion: Reduction in HCl secretion [2] [%] | Protective action on stomach: Reduction in lesion index [2] [%] | Inhibition of acid secretion: Reduction in HCl secretion [3] [%] | Protective action on stomach: Reduction in lesion index [3] [%] | Inhibition of acid secretion: Reduction in HCl secretion [4] [%] | Protective action on stomach: Reduction in lesion index [4] [%] | Inhibition of acid secretion: Reduction in HCl secretion [5] [%] | Protective action on stomach: Reduction in lesion index [5] [%] | Inhibition of acid secretion: Reduction in HCl secretion [6] [%] | Protective action on stomach: Reduction in lesion index [6] [%] | ED50 [7] [µmol/kg] | ED50 [8] [µmol/kg] | also measured
1 | Cc1nc2c(O[C@@H]3c4ccccc4C[C@H]3O)cccn2c1CO (relative stereo) [Example 8, 3-hydroxymethyl-8-(2-(trans)-hydroxy-2,3-dihydro-1-indenyloxy)-2-methyl-imidazo[1,2-a]pyridine] | 19 | 43 | 25 | 47 | 20 | 74 | 35 | 94 | 98 | 100 | ~12.9 | ~0.69 | Inhibition of acid secretion: Reduction in HCl secretion [1]: 10%; Protective action on stomach: Reduction in lesion index [1]: 13%
2 | Cc1nc2c(O[C@@H]3c4ccccc4C[C@H]3O)cccn2c1N.Cl (relative stereo) [Example 11, 3-amino-8-(2-(trans)-hydroxy-2,3-dihydro-1-indenyloxy)-2-methyl-imidazo[1,2-a]pyridine-hydrochloride] |  |  | 16 | 27 | 32 | 71 | 67 | 100 |  |  | ~6.02 | ~1.69 | 
3 | Cc1nc2c(O[C@@H]3c4ccccc4C[C@H]3O)cccn2c1CC#N (relative stereo) [Example 4, 3-cyanomethyl-8-(2-(trans)-hydroxy-2,3-dihydro-1-indenyloxy)-2-methyl-imidazo[1,2-a]pyridine] | -26 | 18 | 22 | 35 | 63 | 93 |  |  | 99 | 100 | ~1.95 | ~1.04 | Inhibition of acid secretion: Reduction in HCl secretion [9]: 12%; Protective action on stomach: Reduction in lesion index [9]: 33%; Inhibition of acid secretion: Reduction in HCl secretion [10]: 50%; Protective action on stomach: Reduction in lesion index [10]: 94%; Inhibition of acid secretion: Reduction in HCl secretion [11]: 51%; Protective action on stomach: Reduction in lesion index [11]: 98%; Inhibition of acid secretion: Reduction in HCl secretion [12]: 73%; Protective action on stomach: Reduction in lesion index [12]: 100%
4 | Cc1nc2c(O[C@@H]3c4ccccc4C[C@H]3O)cccn2c1C (relative stereo) [Example 2] | -20 | 25 | 23 | 47 | 52 | 81 | 47 | 94 | 95 | 100 | ~4.27 | ~0.84 | 
5 | Cc1nc2c(O[C@@H]3c4ccc(F)cc4C[C@H]3O)cccn2c1CO (relative stereo) [Example 30, 8-(5-fluoro-2-(trans)-hydroxy-2,3-dihydro-1-indenyloxy)-3-hydroxymethyl-2-methyl-imidazo[1,2-a]pyridine] |  |  |  |  | 41 | 86 |  |  |  |  |  |  | 
